Our source for the EC50 and CC50 values is US20230013823A1, “INHIBITORS OF HUMAN IMMUNODEFICIENCY VIRUS REPLICATION” (VIV HEALTHCARE UK (No. 5) LIMITED, priority 2019, published 2023).

Format in all cases: cell-based
Series [1] concerns recombinant NL4-3 virus (Renilla luciferase in nef). The experiment in a line: HIV cell culture assay (antiviral activity, luciferase readout in MT-2 cells). The essentials:
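MT-2 cells were infected for 4-5 days with 293T-derived recombinant NL4-3 reporter virus in the presence of serially diluted compound. Antiviral activity was quantified as luciferase activity using a live-cell substrate. EC50 was derived from the median effect equation.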

In the next series the test system is uninfected MT2 cells. The experiment in a line: Compound cytotoxicity, XTT-based colorimetric assay. Particulars: day 4, XTT. The procedure: (§1) Compound cytotoxicity and the corresponding CC50 values were determined using the same protocol as described in the antiviral assay except that uninfected cells were used. Cytotoxicity was assessed on day 4 in uninfected MT2 cells by using an XTT (2,3-bis[2-Methoxy-4-nitro-5-sulfophenyl]-2H-tetrazolium-5-carboxyanilide inner salt)-based colorimetric assay (Sigma-Aldrich, St Louis, Mo.).

Experiment in series [2]: as above
Particulars: human; uninfected MT2 cells, day 4, XTT. The procedure: as §1
Background: Tetrazolium assays rely on reduction of a dye to a coloured formazan, in cell work by metabolically active cells.

The mark [3] stands for this setting: MT=2 cells infected for 4-5 days with the recombinant virus, luciferase activity, read-out: EC50.

Where two headings read alike, the source gives them in different places. Bounds are passed on as bounds.

In the case of `Cn1nc(NS(C)(=O)=O)c2c(Cl)ccc(-n3c([C@H](Cc4cc(F)cc(F)c4)NC(=O)Cn4nc(C(F)(F)F)c5c4C(F)(F)[C@@H]4C[C@H]54)nc4cc(-c5ccn(CC(F)(F)C(F)F)n5)ccc4c3=O)c21` [Example 59, N—((S)-1-((3P)-3-(4-chloro-1-methyl-3-(methylsulfonamido)-1H-indazol-7-yl)-4-oxo-7-(1-(2,2,3,3-tetrafluoropropyl)-1H-pyrazol-3-yl)-3,4-dihydroquinazolin-2-yl)-2-(3,5-difluorophenyl)ethyl)-2-((3bS,4aR)-5,5-difluoro-3-(trifluoromethyl)-3b,4,4a,5-tetrahydro-1H-cyclopropa[3,4]cyclopenta[1,2-c]pyrazol-1-yl)acetamide], the EC50 – broadly, the midpoint of the concentration-response curve – in series [1] (setting [3]) is 110 pM. Also, the CC50 (as a rule, the concentration giving 50% cytotoxicity) in the series on uninfected MT2 cells is greater than 100000 pM.

Regarding `CC(C(=O)NC(Cc1cc(F)cc(F)c1)c1nc2cc(-c3ccn(CC(C)(F)F)n3)ccc2c(=O)n1-c1ccc(Cl)c2c(NS(C)(=O)=O)nn(C)c12)n1ccc(C2CC2)n1` [Example 58, (S)—N—((S)-1-((3P)-3-(4-chloro-1-methyl-3-(methylsulfonamido)-1H-indazol-7-yl)-7-(1-(2,2-difluoropropyl)-1H-pyrazol-3-yl)-4-oxo-3,4-dihydroquinazolin-2-yl)-2-(3,5-difluorophenyl)ethyl)-2-(3-cyclopropyl-1H-pyrazol-1-yl)propanamide], the EC50 in series [1] (setting [3]) was 46 pM. The compound further gave a CC50 in the series with uninfected MT2 cells greater than 100000 pM.

On to `Cn1nc(NS(C)(=O)=O)c2c(Cl)ccc(-n3c([C@H](Cc4cc(F)cc(F)c4)NC(=O)Cn4nc(C(F)F)c5c4C(F)(F)[C@@H]4C[C@H]54)nc4cc(-c5cnn(CC(F)(F)F)c5)ccc4c3=O)c21` (atropisomer, axis not shown; (P)) [Example 41, N—((S)-1-((3P)-3-(4-chloro-1-methyl-3-(methylsulfonamido)-1H-indazol-7-yl)-4-oxo-7-(1-(2,2,2-trifluoroethyl)-1H-pyrazol-4-yl)-3,4-dihydroquinazolin-2-yl)-2-(3,5-difluorophenyl)ethyl)-2-((3bS,4aR)-3-(difluoromethyl)-5,5-difluoro-3b,4,4a,5-tetrahydro-1H-cyclopropa[3,4]cyclopenta[1,2-c]pyrazol-1-yl)acetamide], for which the EC50 in series [1] (Renilla, NL43) is 97 pM. For the same compound, the CC50 at 4 days in series [2] is greater than 100000 pM.

On to `Cn1nc(NS(C)(=O)=O)c2c(Cl)ccc(-n3c([C@H](Cc4cc(F)cc(F)c4)NC(=O)Cn4nc(C(F)F)c5c4C(F)(F)[C@@H]4C[C@H]54)nc4cc(-c5ccn(CCCF)n5)ccc4c3=O)c21` (atropisomer, axis not shown; (P)) [Example 51, N—((S)-1-((3P)-3-(4-chloro-1-methyl-3-(methylsulfonamido)-1H-indazol-7-yl)-7-(1-(3-fluoropropyl)-1H-pyrazol-3-yl)-4-oxo-3,4-dihydroquinazolin-2-yl)-2-(3,5-difluorophenyl)ethyl)-2-((3bS,4aR)-3-(difluoromethyl)-5,5-difluoro-3b,4,4a,5-tetrahydro-1H-cyclopropa[3,4]cyclopenta[1,2-c]pyrazol-1-yl)acetamide], for which, in series [1] (Renilla, NL43), the EC50 is 42 pM. The CC50 at 4 days in series [2] is greater than 100000 pM.

Turning to `Cn1nc(NS(C)(=O)=O)c2c(Cl)ccc(-n3c([C@H](Cc4cc(F)cc(F)c4)NC(=O)Cn4nc(C(F)F)c5c4C(F)(F)[C@@H]4C[C@H]54)nc4cc(-n5nccc5C(F)(F)F)ccc4c3=O)c21` (atropisomer, axis not shown; (P)) [Example 32, N—((S)-1-((3P)-3-(4-chloro-1-methyl-3-(methylsulfonamido)-1H-indazol-7-yl)-4-oxo-7-(5-(trifluoromethyl)-1H-pyrazol-1-yl)-3,4-dihydroquinazolin-2-yl)-2-(3,5-difluorophenyl)ethyl)-2-((3bS,4aR)-3-(difluoromethyl)-5,5-difluoro-3b,4,4a,5-tetrahydro-1H-cyclopropa[3,4]cyclopenta[1,2-c]pyrazol-1-yl)acetamide], in series [1] (Renilla, NL43), the EC50 was 79 pM. This compound also displayed a CC50 at 4 days in series [2] greater than 100000 pM.

Turning to `Cn1nc(NS(C)(=O)=O)c2c(Cl)ccc(-n3c([C@H](Cc4cc(F)cc(F)c4)NC(=O)Cn4nc(C(F)F)c5c4C(F)(F)[C@@H]4C[C@H]54)nc4cc(-c5cc(C(C)(F)F)ccn5)ccc4c3=O)c21` (atropisomer, axis not shown; (P)) [Example 37, N—((S)-1-((3P)-3-(4-chloro-1-methyl-3-(methylsulfonamido)-1H-indazol-7-yl)-7-(4-(1,1-difluoroethyl)pyridin-2-yl)-4-oxo-3,4-dihydroquinazolin-2-yl)-2-(3,5-difluorophenyl)ethyl)-2-((3bS,4aR)-3-(difluoromethyl)-5,5-difluoro-3b,4,4a,5-tetrahydro-1H-cyclopropa[3,4]cyclopenta[1,2-c]pyrazol-1-yl)acetamide], in series [1] (Renilla, NL43), the EC50 was 330 pM. The CC50 at 4 days in series [2] is greater than 100000 pM.

Turning to `Cn1nc(NS(C)(=O)=O)c2c(Cl)ccc(-n3c([C@H](Cc4cc(F)cc(F)c4)NC(=O)Cn4nc(C(F)F)c5c4C(F)(F)[C@@H]4C[C@H]54)nc4cc(-c5ccnc(CF)n5)ccc4c3=O)c21` (atropisomer, axis not shown; (P)) [Example 55, N—((S)-1-((3P)-3-(4-chloro-1-methyl-3-(methylsulfonamido)-1H-indazol-7-yl)-7-(2-(fluoromethyl)pyrimidin-4-yl)-4-oxo-3,4-dihydroquinazolin-2-yl)-2-(3,5-difluorophenyl)ethyl)-2-((3bS,4aR)-3-(difluoromethyl)-5,5-difluoro-3b,4,4a,5-tetrahydro-1H-cyclopropa[3,4]cyclopenta[1,2-c]pyrazol-1-yl)acetamide], the concentration giving a half-maximal response (EC50) in series [1] (Renilla, NL43) was 56 pM. In series [2], this compound displayed a CC50 at 4 days greater than 100000 pM.

Consider `Cn1nc(NS(C)(=O)=O)c2c(Cl)ccc(-n3c([C@H](Cc4cc(F)cc(F)c4)NC(=O)Cn4nc(C(F)F)c5c4C(F)(F)[C@@H]4C[C@H]54)nc4cc(-c5ccn(CCC(F)(F)F)n5)ccc4c3=O)c21` (atropisomer, axis not shown; (P)) [Example 50, N—((S)-1-((3P)-3-(4-chloro-1-methyl-3-(methylsulfonamido)-1H-indazol-7-yl)-4-oxo-7-(1-(3,3,3-trifluoropropyl)-1H-pyrazol-3-yl)-3,4-dihydroquinazolin-2-yl)-2-(3,5-difluorophenyl)ethyl)-2-((3bS,4aR)-3-(difluoromethyl)-5,5-difluoro-3b,4,4a,5-tetrahydro-1H-cyclopropa[3,4]cyclopenta[1,2-c]pyrazol-1-yl)acetamide], for which, in series [1] (Renilla, NL43), the concentration giving a half-maximal response (EC50) came to 66 pM. The CC50 at 4 days in series [2] is greater than 100000 pM.

As to `COc1nc(C)cc(-c2ccc3c(=O)n(-c4ccc(Cl)c5c(NS(C)(=O)=O)nn(C)c45)c([C@H](Cc4cc(F)cc(F)c4)NC(=O)Cn4nc(C(F)F)c5c4C(F)(F)[C@@H]4C[C@H]54)nc3c2)n1` (atropisomer, axis not shown; (P)) [Example 16, N—((S)-1-((3P)-3-(4-chloro-1-methyl-3-(methylsulfonamido)-1H-indazol-7-yl)-7-(2-methoxy-6-methylpyrimidin-4-yl)-4-oxo-3,4-dihydroquinazolin-2-yl)-2-(3,5-difluorophenyl)ethyl)-2-((3bS,4aR)-3-(difluoromethyl)-5,5-difluoro-3b,4,4a,5-tetrahydro-1H-cyclopropa[3,4]cyclopenta[1,2-c]pyrazol-1-yl)acetamide], the EC50 in series [1] (Renilla, NL43) came to 110 pM. This compound also came in with a cytotoxic concentration (CC50) at 4 days in series [2] greater than 500000 pM.

`COCc1ccccc1-c1ccc2c(=O)n(-c3ccc(Cl)c4c(NS(C)(=O)=O)nn(C)c34)c([C@H](Cc3cc(F)cc(F)c3)NC(=O)Cn3nc(C(F)F)c4c3C(F)(F)[C@@H]3C[C@H]43)nc2c1` (atropisomer, axis not shown; (P)) [Example 19, N—((S)-1-((3P)-3-(4-chloro-1-methyl-3-(methylsulfonamido)-1H-indazol-7-yl)-7-(2-(methoxymethyl)phenyl)-4-oxo-3,4-dihydroquinazolin-2-yl)-2-(3,5-difluorophenyl)ethyl)-2-((3bS,4aR)-3-(difluoromethyl)-5,5-difluoro-3b,4,4a,5-tetrahydro-1H-cyclopropa[3,4]cyclopenta[1,2-c]pyrazol-1-yl)acetamide]: the EC50 in series [1] (Renilla, NL43) came out at 160 pM. For the same compound, the CC50 at 4 days in series [2] is greater than 500000 pM.

As for `Cc1nc2cc(-c3ccc4c(=O)n(-c5ccc(Cl)c6c(NS(C)(=O)=O)nn(C)c56)c([C@H](Cc5cc(F)cc(F)c5)NC(=O)Cn5nc(C(F)F)c6c5C(F)(F)[C@@H]5C[C@H]65)nc4c3)ccc2s1` (atropisomer, axis not shown; (P)) [Example 36, N—((S)-1-((3P)-3-(4-chloro-1-methyl-3-(methylsulfonamido)-1H-indazol-7-yl)-7-(2-methylbenzo[d]thiazol-5-yl)-4-oxo-3,4-dihydroquinazolin-2-yl)-2-(3,5-difluorophenyl)ethyl)-2-((3bS,4aR)-3-(difluoromethyl)-5,5-difluoro-3b,4,4a,5-tetrahydro-1H-cyclopropa[3,4]cyclopenta[1,2-c]pyrazol-1-yl)acetamide], in series [1] (Renilla, NL43), the half-maximal effective concentration (EC50) was determined as 1800 pM. In addition, in series [2], the CC50 at 4 days is greater than 100000 pM.
